The subject of test [1] is AEA cellular uptake (U937 cells). The experiment in a line: [3H]-AEA cellular uptake inhibition in U937 cells. The settings on record: Homo sapiens, U-937, U937 cells, final 100 nM AEA with 0.5 nM [3H]-AEA, 15 min at 37° C.; read-out: AEA uptake IC50. Format: cell-based. The procedure, abridged:
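U937 cells (0.5×10^6 per sample) pre-incubated with compound (100 pM–100 μM, triplicates) for 15 min at 37 °C, then given 100 nM AEA including 0.5 nM [3H]-AEA for 15 min. Filtration, washing and scintillation counting of cell-associated radioactivity; IC50 by four-parameter nonlinear regression.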

The target of the next test is T1, FAAH (Homo sapiens, UniProt O00519).
T1 construct: endogenous in cells; host or cells: U937 cell homogenate
T1 sequence (O00519 1-579): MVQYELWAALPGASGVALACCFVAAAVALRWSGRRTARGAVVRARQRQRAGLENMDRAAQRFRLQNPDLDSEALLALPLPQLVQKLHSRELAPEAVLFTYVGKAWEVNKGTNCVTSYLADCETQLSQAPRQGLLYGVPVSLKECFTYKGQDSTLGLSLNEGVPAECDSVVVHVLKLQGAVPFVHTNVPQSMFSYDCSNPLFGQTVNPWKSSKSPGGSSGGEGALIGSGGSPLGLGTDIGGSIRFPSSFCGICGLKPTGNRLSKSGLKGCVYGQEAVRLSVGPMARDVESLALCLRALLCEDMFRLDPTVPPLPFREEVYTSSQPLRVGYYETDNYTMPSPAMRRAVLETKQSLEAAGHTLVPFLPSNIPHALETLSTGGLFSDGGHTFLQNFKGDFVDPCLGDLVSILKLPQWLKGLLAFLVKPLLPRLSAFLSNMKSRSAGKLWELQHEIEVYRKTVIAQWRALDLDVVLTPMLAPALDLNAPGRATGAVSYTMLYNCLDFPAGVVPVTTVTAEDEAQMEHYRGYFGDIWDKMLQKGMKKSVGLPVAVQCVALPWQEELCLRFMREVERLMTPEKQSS
The experiment in a line: FAAH activity: hydrolysis of [3H]-AEA in U937 cell homogenates. Format: biochemical. The settings on record: [3H]-AEA hydrolysis, final 100 nM AEA, read-out: FAAH inhibition IC50. The procedure:
Hydrolysis of [^3H]-AEA by FAAH was determined as previously described in cell homogenates of U937 cells (0.18 mg protein) (Omeir et al., 1999, Biochem Biophys Res Commun, 264, 316-20; Mor et al., 2004, J Med Chem, 47, 4998-5008). Protein amounts of cell homogenates corresponded to 0.5×10^6 cells (U937), to assure best possible comparability of IC50 values as used for the AEA cellular uptake assays. URB597 was used as positive control. Protein quantification was performed using a BCA assay (Thermo Scientific). Enzyme activity was assessed by addition of vehicle or compounds in 10 μL DMSO to 490 μL homogenate in 10 mM Tris HCl, 1 mM EDTA, 0.1% (w/v) BSA fatty acid free, pH=8 and incubation for 15 min at 37° C. After, a mixture of AEA plus [ethanolamine-1-^3H]-AEA (0.5 nM) at final 100 nM was added to the homogenates and incubated for 15 min at 37° C. The reaction was stopped by addition of 1 mL ice-cold CHCl3:MeOH (1:1) followed by vigorous vortexing. Phase separation was achieved by centrifugation at 10'000×g at 4° C. for 10 min. Radioactivity of the separated aqueous phase (upper phase) containing [^3H-ethanolamine] or [^3H-glycerol] was measured by liquid scintillation counting on a Tri-Carb 2100 TR liquid scintillation analyzer after addition of 3.5 mL Ultima Gold scintillation cocktail (PerkinElmer Life Sciences). Results are expressed as hydrolysis of tritium substrate in percent of vehicle treated control. IC50 values were calculated by GraphPad®. Data are reported as means of n=3 independent experiments performed in triplicates.

Each structure is given as a SMILES string. Where only a bound is given, the exact number is not on record here.

For orientation: IC50 means the point on the concentration scale where inhibition reaches its midpoint. `CC(C)CN1C(=O)/C(=C/c2ccc(CO)cc2)S/C1=N\c1ccc(F)cc1` [22_B_X, (2Z,5Z)-5-(4-(hydroxymethyl)benzylidene)-2-(4-fluorophenylimino)-3-isobutylthiazolidin-4-one]: the IC50 in test [1] stood at 127 nM; on FAAH it was 19100 nM.

For the molecule `COc1ccc(/N=C2\S/C(=C\c3ccc(CO)cc3)C(=O)N2c2ccccc2)cc1` [22_F_N, (2Z,5Z)-5-(4-(hydroxymethyl)benzylidene)-2-(4-methoxyphenylimino)-3-phenylthiazolidin-4-one], the 50% inhibitory concentration (IC50) in test [1] is 135 nM; on FAAH it was over 100000 nM.

Turning to `O=C1/C(=C/c2ccc(CO)cc2)S/C(=N\CCCc2ccccc2)N1c1ccccc1` [22_K_N, (2Z,5Z)-2-(3-phenylpropylimino)-5-(4-(hydroxymethyl)benzylidene)-3-phenylthiazolidin-4-one], the values for the IC50 (in test [1]; on FAAH) were 97 nM and 6610 nM, respectively.

For `O=C1/C(=C/c2ccccc2)S/C(=N\Cc2ccccc2)N1c1ccccc1` [23_C_N, (2Z,5Z)-5-benzylidene-2-(benzylimino)-3-phenylthiazolidin-4-one], the IC50 in test [1] was 180 nM; at FAAH, over 10000 nM.

`Cc1ccc(/N=C2\S/C(=C\c3ccc4c(c3)OCCO4)C(=O)N2c2ccc(C)cc2)cc1` [24_A_A, (2Z,5Z)-2-(p-tolylimino)-5-((2,3-dihydrobenzo[b][1,4]dioxin-6-yl)methylene)-3-p-tolylthiazolidin-4-one]: the IC50 was 286 nM in test [1] and over 100000 nM on FAAH.

For the molecule `Cc1ccc(/N=C2\S/C(=C\c3ccc4c(c3)OCCO4)C(=O)N2C2CCCCC2)cc1` [24_A_I, (2Z,5Z)-3-cyclohexyl-5-(2,3-dihydro-1,4-benzodioxin-6-ylmethylene)-2-(p-tolylimino)thiazolidin-4-one], the IC50 is 301 nM in test [1] and over 100000 nM at FAAH.

In the case of `O=C1/C(=C/c2ccc3c(c2)OCCO3)S/C(=N\c2ccc(F)cc2)N1c1ccc(F)cc1` [24_B_B, (2Z,5Z)-2-(4-fluorophenylimino)-3-(4-fluorophenyl)-5-((2,3-dihydrobenzo[b][1,4]dioxin-6-yl)methylene)thiazolidin-4-one], the half-maximal inhibitory concentration (IC50) in test [1] was 170 nM; at FAAH it was over 100000 nM.

For the molecule `O=C1/C(=C/c2ccc3c(c2)OCCO3)S/C(=N\c2ccc(F)cc2)N1C1CCCCC1` [24_B_I, (2Z,5Z)-2-(4-fluorophenylimino)-3-cyclohexyl-5-((2,3-dihydrobenzo[b][1,4]dioxin-6-yl)methylene)thiazolidin-4-one], the half-maximal inhibitory concentration (IC50) in test [1] was 141 nM; on FAAH, over 100000 nM.

On to `CC(C)CN1C(=O)/C(=C/c2ccc3c(c2)OCCO3)S/C1=N\c1ccc(F)cc1` [24_B_X, (2Z,5Z)-2-(4-fluorophenylimino)-5-((2,3-dihydrobenzo[b][1,4]dioxin-6-yl)methylene)-3-isobutylthiazolidin-4-one], for which the IC50 is 162 nM in test [1] and over 100000 nM on FAAH.

As for `O=C1/C(=C/c2ccc3c(c2)OCCO3)S/C(=N\Cc2ccccc2)N1c1ccccc1` [24_C_N, (2Z,5Z)-2-(benzylimino)-5-((2,3-dihydrobenzo[b][1,4]dioxin-6-yl)methylene)-3-phenylthiazolidin-4-one], the values for the 50% inhibitory concentration (IC50) (in test [1]; on FAAH) were 170 nM and 1590 nM, respectively.

Consider `COc1ccc(/N=C2\S/C(=C\c3ccc4c(c3)OCCO4)C(=O)N2c2ccccc2)cc1` [24_F_N, (2Z,5Z)-2-(4-methoxyphenylimino)-5-((2,3-dihydrobenzo[b][1,4]dioxin-6-yl)methylene)-3-phenylthiazolidin-4-one], for which the concentration for half-maximal inhibition (IC50) in test [1] was 939 nM; at FAAH, over 100000 nM.

`Cc1ccc(N2C(=O)/C(=C/c3ccc4c(c3)OCCO4)S/C2=N\c2ccccc2)cc1` [24_N_A, (2Z,5Z)-5-((2,3-dihydrobenzo[b][1,4]dioxin-6-yl)methylene)-2-(phenylimino)-3-p-tolylthiazolidin-4-one]: the IC50 is 334 nM in test [1] and over 100000 nM on FAAH.

As for `O=C1/C(=C/c2ccc3c(c2)OCCO3)S/C(=N\c2ccccc2)N1c1ccc(F)cc1` [24_N_B, (2Z,5Z)-3-(4-fluorophenyl)-5-((2,3-dihydrobenzo[b][1,4]dioxin-6-yl)methylene)-2-(phenylimino)thiazolidin-4-one], the IC50 in test [1] is 667 nM; at FAAH, over 100000 nM.

On to `O=C1/C(=C/c2ccc3c(c2)OCCO3)S/C(=N\c2ccccc2)N1C1CCCCC1` [24_N_I, (2Z,5Z)-3-cyclohexyl-5-((2,3-dihydrobenzo[b][1,4]dioxin-6-yl)methylene)-2-(phenylimino)thiazolidin-4-one], for which the values for the IC50 (in test [1]; at FAAH) were 462 nM and over 100000 nM, respectively.

With `CC(C)CN1C(=O)/C(=C/c2ccc3c(c2)OCCO3)S/C1=N\c1ccccc1` [24_N_X, (2Z,5Z)-5-((2,3-dihydrobenzo[b][1,4]dioxin-6-yl)methylene)-3-isobutyl-2-(phenylimino)thiazolidin-4-one], the IC50 in test [1] was 172 nM; at FAAH, over 100000 nM.

As for `Cc1ccc(N2C(=O)/C(=C/c3ccc4c(c3)OCCO4)S/C2=N\Cc2ccc(F)cc2)cc1` [24_P_A, (2Z,5Z)-2-(4-fluorobenzylimino)-5-((2,3-dihydrobenzo[b][1,4]dioxin-6-yl)methylene)-3-p-tolylthiazolidin-4-one], the half-maximal inhibitory concentration (IC50) in test [1] was 176 nM; at FAAH, 1510 nM.

With `O=C1/C(=C/c2ccc3c(c2)OCCO3)S/C(=N\Cc2ccc(F)cc2)N1c1ccc(F)cc1` [24_P_B, (2Z,5Z)-2-(4-fluorobenzylimino)-3-(4-fluorophenyl)-5-((2,3-dihydrobenzo[b][1,4]dioxin-6-yl)methylene)thiazolidin-4-one], the figures for the IC50 (in test [1]; at FAAH) were 1040 nM and 11200 nM, respectively.

Consider `O=C1/C(=C/c2ccc3c(c2)OCCO3)S/C(=N\Cc2ccc(F)cc2)N1C1CCCCC1` [24_P_I, (2Z,5Z)-2-(4-fluorobenzylimino)-3-cyclohexyl-5-((2,3-dihydrobenzo[b][1,4]dioxin-6-yl)methylene)thiazolidin-4-one], for which the results for the IC50 (in test [1]; on FAAH) were 87 nM and 170 nM, respectively.

`O=C1/C(=C/c2ccc3c(c2)OCCO3)S/C(=N\Cc2ccc(F)cc2)N1c1ccc(Cl)cc1` [24_P_L, (2Z,5Z)-2-(4-fluorobenzylimino)-3-(4-chlorophenyl)-5-((2,3-dihydrobenzo[b][1,4]dioxin-6-yl)methylene)thiazolidin-4-one]: the half-maximal inhibitory concentration (IC50) in test [1] was 51 nM; on FAAH, 617 nM.

For `O=C1/C(=C/c2ccc3c(c2)OCCO3)S/C(=N\Cc2ccc(F)cc2)N1c1ccccc1` [24_P_N, (2Z,5Z)-2-(4-fluorobenzylimino)-5-((2,3-dihydrobenzo[b][1,4]dioxin-6-yl)methylene)-3-phenylthiazolidin-4-one], the IC50 is 530 nM in test [1] and 912 nM at FAAH.

Consider `CC(C)CN1C(=O)/C(=C/c2ccc3c(c2)OCCO3)S/C1=N\Cc1ccc(F)cc1` [24_P_X, (2Z,5Z)-2-(4-fluorobenzylimino)-5-((2,3-dihydrobenzo[b][1,4]dioxin-6-yl)methylene)-3-isobutylthiazolidin-4-one], for which the half-maximal inhibitory concentration (IC50) in test [1] worked out at 509 nM; at FAAH it was 2630 nM.

In the case of `COc1ccc(C/N=C2\S/C(=C\c3ccc4c(c3)OCCO4)C(=O)N2c2ccc(C)cc2)cc1` [24_Q_A, (2Z,5Z)-2-(4-methoxybenzylimino)-5-((2,3-dihydrobenzo[b][1,4]dioxin-6-yl)methylene)-3-p-tolylthiazolidin-4-one], the IC50 was 164 nM in test [1] and over 100000 nM at FAAH.

Take `COc1ccc(C/N=C2\S/C(=C\c3ccc4c(c3)OCCO4)C(=O)N2c2ccc(F)cc2)cc1` [24_Q_B, (2Z,5Z)-2-(4-methoxybenzylimino)-3-(4-fluorophenyl)-5-((2,3-dihydrobenzo[b][1,4]dioxin-6-yl)methylene)thiazolidin-4-one]: the IC50 in test [1] stood at 33 nM; at FAAH, 1290 nM.
